IC50 and reduced food intake data for 6 molecules are collected here from patent publication US20080300232A1, “N-Piperidine Derivatives as Ccr3 Modulators” (ASTRAZENECA AB, priority 2004, published 2008).

Assay [1] concerns the target T1, human Melanin concentrating hormone receptor 1 (MCH1r) (Homo sapiens, UniProt Q99705).
T1 construct: expressed in transfected cells; host or cells: CHO-K1
In words: MCH1 receptor radioligand binding (125I-MCH, CHO-K1 cell membranes). Particulars: CHO-K1 membranes expressing human MCH1r, 30° C., 60 minutes, read-out: IC50 in human MCHr binding assay. On the procedure: MCH1 Receptor Radioligand Binding.
Assays were performed on membranes prepared from CHO—K1 cells expressing the human Melanin concentrating hormone receptor 1 (MCH1r). Assays were performed in a 96-well plate format in a final reaction volume of 200 μl per well. Each well contained 6 μg of membrane proteins diluted in binding buffer (50 mM Tris, 3 mM MgCl2, 0.05% bovine serum albumin and the radioligand ^125I-MCH (IM344 Amersham) was added to give 10 000 cpm (counts per minute) per well. Each well contained 2 μl of the appropriate concentration of competitive antagonist prepared in DMSO and left to stand at 30° C. for 60 minutes. Non-specific binding was determined as that remaining following incubation with 1 μM MCH (Melanin concentrating hormone, H-1482 Bachem). The reaction was terminated by transfer of the reaction to GF/A filters using a Micro96 Harvester (Skatron Instruments, Norway). Filters were washed with assay buffer. Radioligand retained on the filters was quantified using al450 Microbeta TRILUX (Wallac, Finland).
Non-specific binding was subtracted from all values determined. Maximum binding was that determined in the absence of any competitor following subtraction of the value determined for non-specific binding. Binding of compounds at various concentrations was plotted according to the equation
and IC50 estimated where A is the bottom plateau of the curve i.e. the final minimum y value B is the top of the plateau of the curve i.e. the final maximum y value C is the x value at the middle of the curve. This represents the log EC50 value when A+B=100 D is the slope factor. x is the original known x values. y is the original known y values.

Another assay concerns the target T2, recombinant hMCHr (Homo sapiens, UniProt Q99705).
T2 construct: purchased Euroscreen
In words: MCH1 functional assay ([35S]GTPγS binding, membranes with recombinant hMCHr). Particulars: ED80 concentration of MCH, 45 min at 30° C., read-out: IC50 of antagonists in MCH1 functional assay. The assay is classed as biochemical. On the procedure: Membranes expressing recombinant hMCHr (5.45 pmol/mg protein; Euroscreen) were prepared in assay buffer (50 mM HEPES, 100 mM NaCl, 5 mM MgCl2, 1 mM EDTA, 200 μM DTT, 20 μM GDP (Sigma) containing 0.1 μg/ml BSA, pH7.4) before assay. The assays were performed using membranes at 6 μg/well in an assay volume of 200 μl and the appropriate concentrations of compounds prepared in DMSO. The reaction was started by addition of 0.056 nM [^35S]GTPγS (Specific activity >1000 Ci/mmol; Amersham) and an ED80 concentration of MCH (determined for each membrane and each MCH batch). Non-specific binding was determined using 20 μM non-radiolabelled GTPγS. Plates were incubated for 45 min at 30° C. Free and bound GTPγS were separated by filtration binding using GF/B filter mats presoaked in wash buffer (50 mM Tris, 5 mM MgCl2, 50 mM NaCl, pH 7.4) using a Micro96 cell harvester (Skatron Instruments) and the filters then dried at 50° C. before counting using al450 Microbeta TRILUX (Wallac).
Data are means ±SD for experiments performed in triplicate. IC50 values of antagonists were determined using non-linear regression analysis of concentration response curves using Activity Base.
(GTPγS resists hydrolysis and so accumulates on activated G proteins.)

The next assay has as its system Male Wistar-Hanover rats. In words: Pharmacodynamic effect in rat (food intake and body weight after fasting). Format: in vivo. As to conditions: 16.7 μmol/kg i.p. amorphous nanoparticle formulation, time interval 0-4 h. Here is the method: Pharmacodynamic Effect in Rat
Male Wistar-Hanover rats (Charles River, 300-350 grams) were acclimated to individually housing in conventional cages (Makrolon III) with 12:12 hour light-dark photoperiod (lights on at 06.00) in a temperature (20-22° C.) and humidity (40-60%) controlled room. R-3 lab chow (Lactanin, Vadstena, Sweden) and tap water from bottles were allowed ad libidum. At 16.00 on the day before experiments, animals were weighed & food (but not water) was removed. At 08.00 on experiment day, animals were weighed & compound (i.p. amorphous nanoparticle formulation, 5 ml/kg) or vehicle (3-10% DMA depending on compound formulation) administered. Animals were returned to their home cages & given access to a weighed amount of food. This food was then re-weighed 1, 2, 4, 6 & 24 hours later, and food consumption calculated by the difference from initial food weight.
Animals were further weighed at the 24-hr timepoint, and change in body weight over the treatment period was calculated.

Molecules are shown by their SMILES.

In general, IC50 refers to the point on the concentration scale where inhibition reaches its midpoint.

T2 sequence (Q99705 whole entry): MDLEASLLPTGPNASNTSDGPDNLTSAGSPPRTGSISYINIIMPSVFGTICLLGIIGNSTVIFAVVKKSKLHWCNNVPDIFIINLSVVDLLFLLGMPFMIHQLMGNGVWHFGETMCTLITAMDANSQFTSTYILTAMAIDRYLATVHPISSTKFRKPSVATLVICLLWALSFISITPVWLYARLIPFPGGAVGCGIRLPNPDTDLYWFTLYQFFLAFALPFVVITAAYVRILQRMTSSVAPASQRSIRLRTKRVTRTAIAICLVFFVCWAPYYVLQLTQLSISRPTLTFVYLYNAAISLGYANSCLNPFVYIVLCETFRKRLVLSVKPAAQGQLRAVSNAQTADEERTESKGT
T1 sequence (Q99705 whole entry): as above

Turning to `COc1ccc(-n2ccc(CN3CCC(NC(=O)COc4cccc(Cl)c4)CC3)c2)cc1` [Example 3, 2-(3-chlorophenoxy)-N-({[1-(4-methoxyphenyl)-1H-pyrrol-3-yl]methyl}piperidin-4-yl)acetamide], the IC50 in assay [1] was 167 nM; on recombinant hMCHr, 45 nM.
Take `O=C(COc1cccc(Cl)c1)NC1CCN(Cc2ccc(-c3ccc(Cl)cc3)o2)CC1` [Example 8, 2-(3-chlorophenoxy)-N-(1-{[5-(4-chlorophenyl)-2-furyl]methyl}piperidin-4-yl)acetamide]: the IC50 in assay [1] was found to be 105 nM; on recombinant hMCHr it was 111 nM.
Consider `O=C(CCc1cccc(Cl)c1)NC1CCN(Cc2ccn(-c3ccc(C(F)(F)F)cc3)c2)CC1` [Example 29, 3-(3-chlorophenyl)-N-[1-({1-[4-(trifluoromethyl)phenyl]-1H-pyrrol-3-yl}methyl)piperidin-4-yl]propanamide], for which the IC50 (in assay [1]; on recombinant hMCHr) was 66 nM throughout.
As for `N#Cc1ccccc1OCC(=O)NC1CCN(Cc2ccn(-c3ccc(C(F)(F)F)cc3)c2)CC1` [Example 34, 2-(2-cyanophenoxy)-N-[1-({1-[4-(trifluoromethyl)phenyl]-1H-pyrrol-3-yl}methyl)piperidin-4-yl]acetamide], the reduced food intake in the assay on Male Wistar-Hanover rats came out at 20%.
On to `O=C(COc1cccc(Cl)c1)NC1CN(Cc2ccn(-c3ccc(C(F)(F)F)cc3)c2)C1` [Example 41, 2-(3-chlorophenoxy)-N-[1-({1-[4-(trifluoromethyl)phenyl]-1H-pyrrol-3-yl}methyl)azetidin-3-yl]acetamide], for which the IC50 in assay [1] was found to be 39 nM.
On the same count and under the same terms, in the case of `O=C(COc1ccc(F)c(F)c1)NC1CCN(Cc2ccn(-c3ccc(C(F)(F)F)cc3)c2)C1` (stereo not drawn) [Example 44, 2-(3,4-difluorophenoxy)-N-[1-({1-[4-(trifluoromethyl)phenyl]-1H-pyrrol-3-yl}methyl)pyrrolidin-3-yl]acetamide] it was 27 nM.
